According to US8394971B2, “Indole derivatives as selective androgen receptor modulators (SARMS)” (Janssen Pharmaceutica N.V., priority 2004, dated 2013):
Read-outs that look alike come from different tables or passages of the source.

Columns and labels:
[1] = biological target: T1, androgen receptor (rat ventral prostate cytosol) (Rattus norvegicus, UniProt P15207); assay: Androgen Receptor Binding Using Rat Ventral Prostate Cytosol
T1 construct: from tissue; host or cells: ventral prostate of castrated male Sprague Dawley or Wistar rats, cytosol
T1 sequence (P15207 1-902): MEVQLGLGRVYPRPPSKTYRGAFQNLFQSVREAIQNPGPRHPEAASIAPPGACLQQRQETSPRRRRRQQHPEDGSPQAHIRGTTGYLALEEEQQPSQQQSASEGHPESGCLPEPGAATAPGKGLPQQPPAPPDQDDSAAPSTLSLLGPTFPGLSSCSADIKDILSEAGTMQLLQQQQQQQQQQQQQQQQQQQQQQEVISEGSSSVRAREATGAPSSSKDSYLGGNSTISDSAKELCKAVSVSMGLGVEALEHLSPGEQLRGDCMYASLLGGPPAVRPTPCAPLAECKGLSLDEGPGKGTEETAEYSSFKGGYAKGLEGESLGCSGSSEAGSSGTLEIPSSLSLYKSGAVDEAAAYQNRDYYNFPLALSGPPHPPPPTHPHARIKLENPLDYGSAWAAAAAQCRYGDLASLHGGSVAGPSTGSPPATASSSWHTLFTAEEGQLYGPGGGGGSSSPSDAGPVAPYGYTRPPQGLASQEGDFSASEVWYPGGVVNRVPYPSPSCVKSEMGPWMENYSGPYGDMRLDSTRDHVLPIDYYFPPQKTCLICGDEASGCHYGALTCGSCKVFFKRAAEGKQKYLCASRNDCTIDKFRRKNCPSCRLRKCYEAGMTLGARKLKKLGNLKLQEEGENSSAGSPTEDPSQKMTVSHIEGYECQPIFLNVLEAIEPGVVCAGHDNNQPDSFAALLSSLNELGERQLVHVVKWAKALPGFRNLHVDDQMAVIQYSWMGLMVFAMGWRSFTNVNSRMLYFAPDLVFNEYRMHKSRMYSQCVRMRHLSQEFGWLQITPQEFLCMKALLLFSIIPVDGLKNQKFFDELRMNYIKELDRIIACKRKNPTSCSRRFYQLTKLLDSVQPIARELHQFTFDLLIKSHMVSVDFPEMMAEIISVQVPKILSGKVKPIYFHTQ
Method: (§1) The assay was run on a 96 well plate with each well filled with a total reaction volume 150 μL, of a solution containing 5 pmol androgen receptor LBD (Panvera) or 30 μL of freshly prepared rat cytosol, 0.5 nM [^3H] […] (TED buffer contains 10 mM Tris.HCl pH 7.4, 1 mM sodium molybdate, 1.5 mM EDTA, 1 mM DTT and 10% (v/v) glycerol.)
(§2) On day one, the solution containing receptor, tracer and TED buffer was distributed into a 96 well plate. Diluted test compound or control vehicle was then added to individual wells and the plate incubated at 4° C. overnight.
(§3) On day two, to each well was then added 20 μL human γ-globulin (ICN 823102), prepared at 25 mg/ml in TE pH 8.0, and 55 μL 40% polyethylene glycol 8000 (JT Baker U222-08), prepared in TE pH 8.0. The plate was incubated at 4° C. for 60 minutes. During incubation, the harvester was rinsed with 10% PEG 8000, prepared in TE pH 8.0, and a GF/C Unifilter-96 was pre-wet with 10% PEG. The binding reaction was filtered, the retentate was washed three times with 10% PEG and dried under vacuum for a couple of minutes, then dried at 50° C. for 5 min and the plate was bottom sealed. Next, 25 μL of Microscint-20 (Packard) was added to the filter wells and the plate was top sealed. The plate wells were then counted on a TopCount (Packard).
Rat Prostate Cytosol Preparation:
Male Sprague Dawley or Wistar rats (Charles River, 200-300 g) were used for each preparation. The day before preparing the cytosol, the rats were castrated using standard surgical procedures.
The rats were euthanized by carbon dioxide asphyxiation. The rat prostates were quickly removed and placed on ice in pre-chilled, pre-weighed 50 mL plastic tubes. No more than five prostates were placed into one tube. The tubes were then weighed and the prostate tissue wet weights calculated.
To the chilled prostate tissue was then added […] of chilled homogenization buffer. The homogenization buffer was freshly prepared by mixing 10 mM Tris.HCl, pH 7.4, 1 mM sodium molybdate, 1.5 mM EDTA, 1 mM dithiothreitol, 10% (v/v) glycerol and 1% protease inhibitor cocktail (Sigma P 8340).
The prostate tissue was homogenized in a cold room using a pre-chilled Polytron PT3000 homogenizer (Brinkmann). Homogenization was performed at a speed setting of 20, three times for 10 sec bursts. The tubes containing the prostate tissue was kept on ice while homogenizing. The homogenate was allowed to rest on ice for 20 sec between bursts.
The homogenate was then placed into pre-chilled 3 mL polycarbonate ultracentrifuge tubes and centrifuged in the TLA-100 rotor of a TL-100 ultracentrifuge for 12 min at 100,000 rpm at 4° C. The resulting supernatant was stored in 1 mL aliquots at −80° C. until needed.
Binding to the androgen receptor was determined according to the protocol described in Example 86 using the above prepared rat cytosol.
% Inhibition was determined by testing dilutions of the test compound (usually duplicates of 10 μM) in the binding assay. Counts per well were measured and percents of inhibition determined. […] Counts per well were measured and IC50s determined by linear regression.

[2] = biological target: T2, androgen receptor LBD (Panvera) (Rattus norvegicus, UniProt P15207); assay: Androgen Receptor Filtration Binding Assay (PANVERA)
T2 construct: 5 pmol androgen receptor LBD (Panvera); purchased Panvera
T2 sequence (P15207 651-882 limits assumed): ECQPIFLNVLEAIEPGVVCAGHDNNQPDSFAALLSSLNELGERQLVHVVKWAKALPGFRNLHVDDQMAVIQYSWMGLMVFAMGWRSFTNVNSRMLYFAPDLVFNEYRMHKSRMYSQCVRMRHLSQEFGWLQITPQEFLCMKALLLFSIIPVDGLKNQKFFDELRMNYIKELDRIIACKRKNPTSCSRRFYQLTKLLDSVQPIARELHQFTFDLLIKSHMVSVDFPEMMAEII
Method: as §1, §2, §3
Counts per well were measured and IC50s determined by linear regression.

[3] = biological target: T3, androgen receptor (adenovirus AdEasy+rAR in L929 cells) (Rattus norvegicus, UniProt P15207); assay: L929 Androgen Receptor Functional Assay, Adenovirus Transduction; format: cell-based; conditions: L929 agonist testing; 3000 nM
T3 construct: expressed in transfected cells
T3 sequence (P15207 1-902): T1 sequence (P15207 1-902)
Summary of the method: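 Luminescent reporter readout after 48 h at 37 °C: rat AR delivered by adenovirus (AdEasy+rAR, moi 1:500) into L929 cells grown without phenol red in charcoal-treated serum. Antagonist wells also received R1881 (2.5× dilution at 2.5 nM).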

[4] = system: testosterone-enhanced ventral prostate and seminal vesicle weights in castrated male Sprague Dawley rats; assay: Ventral Prostate and Seminal Vesicle Weight In Vivo Assay; design: species or system rat; conditions: immature castrated rats; once daily for five days, usually orally at 40 mg/kg, with testosterone propionate 2 mg/kg s.c.
Summary of the method: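 Immature (~50 g) castrated Sprague Dawley rats dosed once daily for five days with compound (usually oral, 40 mg/kg, cyclodextrin or methylcellulose vehicle) plus testosterone propionate 2 mg/kg s.c. Wet ventral prostate and seminal vesicle weights taken on day six; activity judged by prostate weight or body-weight-adjusted % inhibition.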

[5] = rat cytosol, concentration 1000 nM
[6] = rat cytosol, concentration 1000 nM, 1 µM
[7] = Androgen Receptor Binding (Panvera), 0.5 nM [3H] R1881 tracer
[8] = rat cytosol, concentration 3000 nM

## Cc1ccc(CN2CCC(O)(c3cc4cc([N+](=O)[O-])c(C(F)(F)F)cc4[nH]3)CC2)cc1 [compound 27]
[1]; rat cytosol, read-out: IC50
  IC50: 3100 nM

## CS(=O)(=O)n1c(C2(O)CCN(C(=O)c3ccc(Cl)cc3)CC2)cc2cc(Cl)c(C(F)(F)F)cc21 [compound 24]
[1]; [5]
  % Inhibition: 2%

## O=[N+]([O-])c1cc2cc(C3(O)CCN(Cc4ccc(Cl)cc4)CC3)[nH]c2cc1C(F)(F)F [compound 40]
[1]; [6]
  % Inhibition: −2.5%
[1]; rat cytosol, read-out: IC50
  IC50: 3800 nM

## CC(O)(SC1CCCCC1)c1cc2cc([N+](=O)[O-])c(C(F)(F)F)cc2[nH]1 (racemic) [compound 256]
[2]; [7]
  IC50: 2.65 µM

## OC1(c2cc3cc(Cl)c(C(F)(F)F)cc3[nH]2)CCN(Cc2ccccc2)CC1 [Compound #22]
[2]; [7]
  IC50: > 9.6 µM

## CC(O)(SC1CCCCC1)c1cc2cc(C#N)c(C(F)(F)F)cc2[nH]1 (racemic) [compound 257]
[2]; [7]
  IC50: 5.15 µM

## CC(O)(CSc1ccc(Cl)cc1)c1cc2cc(C#N)c(C(F)(F)F)cc2[nH]1 (stereo not drawn) [compound 96]
[2]
  IC50: 1.71 µM

## CC(C)(C)c1ccc(CN2CCC(O)(c3cc4cc(Cl)c(C(F)(F)F)cc4[nH]3)CC2)cc1 [Compound #32]
[1]; [5]
  inhibition at 1 µM: 34%
[1]; rat cytosol, read-out: IC50
  IC50: 43000 nM

## CC(O)(CS(=O)(=O)Cc1ccccc1)c1cc2cc([N+](=O)[O-])c(C(F)(F)F)cc2[nH]1 (racemic) [compound 162]
[1]; [8]
  % Inhibition: 0.69%
[3]
  % Activity: 2%
[4]
  active / inactive (inhibition of testosterone-enhanced prostate weight): inactive

## Cc1ccc(CN2CCC(O)(c3cc4cc([N+](=O)[O-])c(C(F)(F)F)cc4[nH]3)CC2)cc1 [Compound #42]
[1]; 1 µM
  % Inhibition: 23%
[1]; rat cytosol, read-out: IC50
  IC50: 7100 nM

## CC(O)(COC(=O)c1ccccc1Cl)c1cc2cc([N+](=O)[O-])c(C(F)(F)F)cc2[nH]1 (stereo not drawn) [compound 54]
[2]
  IC50: 0.465 µM

## CN(C)c1ccc(S(=O)(=O)CC(C)(O)c2cc3cc(Cl)c(C(F)(F)F)cc3[nH]2)cc1 (racemic) [compound 126]
[1]; [8]
  % Inhibition: −30%
[3]
  % Activity: −5%
[4]
  active / inactive (inhibition of testosterone-enhanced prostate weight): inactive

## COc1cccc(CN2CCC(O)(c3cc4cc(Cl)c(C(F)(F)F)cc4[nH]3)CC2)c1 [compound 29]
[1]; [5]
  inhibition at 1 µM: -1.8%
[1]; rat cytosol, read-out: IC50
  IC50: 4700 nM

## CC(O)(CSc1ccc(F)cc1)c1cc2cc(Cl)c(C(F)(F)F)cc2[nH]1 (stereo not drawn) [compound 83]
[2]; [7]
  IC50: 0.16 µM

## O=[N+]([O-])c1cc2cc(C3(O)CCN(Cc4ccc(Cl)cc4)CC3)[nH]c2cc1C(F)(F)F [compound 41]
[1]; [6]
  % Inhibition: 20%
[1]; rat cytosol, read-out: IC50
  IC50: 2300 nM

## OC1(c2cc3cc(Cl)c(C(F)(F)F)cc3[nH]2)CCN(Cc2ccc(C(F)(F)F)cc2)CC1 [Compound #33]
[1]; [5]
  inhibition at 1 µM: 11%
[1]; rat cytosol, read-out: IC50
  IC50: 29000 nM

## COc1cccc(CN2CCC(O)(c3cc4cc([N+](=O)[O-])c(C(F)(F)F)cc4[nH]3)CC2)c1 [compound 39]
[1]; [6]
  % Inhibition: 6%
[1]; rat cytosol, read-out: IC50
  IC50: > 6100 nM

## COc1cccc(CN2CCC(O)(c3cc4cc([N+](=O)[O-])c(C(F)(F)F)cc4[nH]3)CC2)c1 [compound 38]
[1]; [6]
  % Inhibition: 16%
[1]; rat cytosol, read-out: IC50
  IC50: 8800 nM

## CC(O)(c1cc2cc([N+](=O)[O-])c(C(F)(F)F)cc2[nH]1)S(=O)(=O)c1ccc(Cl)c(Cl)c1 (racemic) [compound 255]
[1]; [5]
  % Inhibition: 26%

## O=[N+]([O-])c1cc2cc(C3(O)CCN(Cc4ccc(Cl)c(Cl)c4)CC3)[nH]c2cc1C(F)(F)F [compound 43]
[1]; [5]
  inhibition at 1 µM: 5.8%
[1]; rat cytosol, read-out: IC50
  IC50: 9100 nM

## OC1(c2cc3cc(Cl)c(C(F)(F)F)cc3[nH]2)CCN(Cc2ccc(Cl)cc2)CC1 [compound 31]
[1]; [5]
  inhibition at 1 µM: 20%
[1]; rat cytosol, read-out: IC50
  IC50: 4050 nM

## OC1(c2cc3cc(Cl)c(C(F)(F)F)cc3[nH]2)CCN(Cc2ccc(F)cc2)CC1 [compound 28]
[1]; [5]
  inhibition at 1 µM: -3.4%
[1]; rat cytosol, read-out: IC50
  IC50: 7000 nM

## CC(C)SC(C)(CO)c1cc2cc([N+](=O)[O-])c(C(F)(F)F)cc2[nH]1 (racemic) [compound 268]
[1]; [8]
  % Inhibition: −3.3%
[3]
  % Activity: 9%
[4]
  active / inactive (inhibition of testosterone-enhanced prostate weight): inactive

## OC1(c2cc3cc(Cl)c(C(F)(F)F)cc3[nH]2)CCN(Cc2ccc(Cl)c(Cl)c2)CC1 [compound 36]
[1]; IC50 (nM)
  IC50: > 100000 nM
[1]; [5]
  inhibition at 1 µM: -34%

## COc1ccc(CN2CCC(O)(c3cc4cc(Cl)c(C(F)(F)F)cc4[nH]3)CC2)cc1 [compound 35]
[1]; [5]
  inhibition at 1 µM: -19%
[1]; rat cytosol, read-out: IC50
  IC50: 4200 nM

## CC(O)(Sc1ccc(N)cc1)c1cc2cc([N+](=O)[O-])c(C(F)(F)F)cc2[nH]1 (racemic) [compound 266]
[1]; [8]
  % Inhibition: 12.4%
[3]
  % Activity: −4%
[4]
  active / inactive (inhibition of testosterone-enhanced prostate weight): inactive

## CS(=O)(=O)c1ccc(CN2CCC(O)(c3cc4cc(Cl)c(C(F)(F)F)cc4[nH]3)CC2)cc1 [compound 34]
[1]; [5]
  inhibition at 1 µM: 18%
[1]; rat cytosol, read-out: IC50
  IC50: 5700 nM

## Cc1ccc(CN2CCC(O)(c3cc4cc(Cl)c(C(F)(F)F)cc4[nH]3)CC2)cc1 [compound 30]
[1]; [5]
  inhibition at 1 µM: -7.7%
[1]; rat cytosol, read-out: IC50
  IC50: 4100 nM
